{"source": "patent US12097192B2", "about": "(Corcept Therapeutics Incorporated, priority 2019, dated 2024)", "system": "Cushing's syndrome patients", "experiment": "Cushing's syndrome patient study: coagulation factors, platelets, aPTT", "format": "in vivo, human", "source_text": "All patients gave informed consent before participating in any study-related procedures. […] The study protocol called for patient visits to the study site at screening, on Day 1 (baseline), Weeks 2, 4, 6, 8, 10, and 12, and after a 4-week follow-up period for Group 1. For Group 2, the protocol called for patient visits to the study site at screening, on Day 1 (baseline), Weeks 2, 4, 6, 8, 10, 12, 14, and 16, and after a 4-week follow-up period. Patient dosing will be done at home, except on days of study visits. […] The safety protocol also included assessments by physical examination findings, vital signs, ECG results, pregnancy tests, clinical laboratory test results (hematology and chemistry panels), adverse events (AEs), and concomitant medications. […] It ignores noncompliance, protocol deviations, withdrawal, and anything that happens after randomization. In contrast, per-protocol (PP) analysis refers to inclusion in the analysis of only those patients who strictly adhered to the protocol. The PP analysis provides an estimate of the true efficacy of an intervention, i.e., among those who completed the treatment as planned.", "key": {"[1]": {"settings": "Abnormal at Baseline, mITT, Group 1 (100-200 mg/day, 12 weeks)"}, "[2]": {"settings": "Abnormal at Baseline, mITT, Group 2 (250-400 mg/day, 16 weeks)"}, "[3]": {"settings": "Abnormal at Baseline, mITT, Overall"}, "[4]": {"settings": "Abnormal at Baseline, mPP, Group 1 (100-200 mg/day, 12 weeks)"}, "[5]": {"settings": "Abnormal at Baseline, mPP, Group 2 (250-400 mg/day, 16 weeks)"}, "[6]": {"settings": "Abnormal at Baseline, mPP, Overall"}, "[7]": {"settings": "All Subjects, mITT, Group 1 (100-200 mg/day, 12 weeks)"}, "[8]": {"settings": "All Subjects, mITT, Group 2 (250-400 mg/day, 16 weeks)"}, "[9]": {"settings": "All Subjects, mPP, Group 1 (100-200 mg/day, 12 weeks)"}, "[10]": {"settings": "All Subjects, mPP, Group 2 (250-400 mg/day, 16 weeks)"}}, "data": [{"molecule": "Cn1cc(S(=O)(=O)N2CCC3=Cc4c(cnn4-c4ccc(F)cc4)C[C@]3(C(=O)c3cc(C(F)(F)F)ccn3)C2)cn1", "note": "[relacorilant, (R)-(1-(4-fluorophenyl)-6-((1-methyl-1H-pyrazol-4-yl)sulfonyl)-4,4a,5,6,7,8-hexahydro-1H-pyrazolo[3,4-g]isoquinolin-4a-yl) (4-(trifluoromethyl)pyridin-2-yl)methanone]", "values": [{"measurement": "Factor IX mean change from Baseline to Last Observed", "setting": "[1]", "value": "−40.8", "unit": "%"}, {"measurement": "Factor X mean change from Baseline to Last Observed", "setting": "[1]", "value": "−15.8", "unit": "%"}, {"measurement": "Thrombin-Antithrombin mean change from Baseline to Last Observed", "setting": "[1]", "value": 1.61, "unit": "µg/L"}, {"measurement": "Factor IX mean change from Baseline to Last Observed", "setting": "[2]", "value": "−4.2", "unit": "%"}, {"measurement": "Factor X mean change from Baseline to Last Observed", "setting": "[2]", "value": "−22", "unit": "%"}, {"measurement": "Thrombin-Antithrombin mean change from Baseline to Last Observed", "setting": "[2]", "value": -9.83, "unit": "µg/L"}, {"measurement": "von Willebrand Factor mean change from Baseline to Last Observed", "setting": "[2]", "value": "−18.5", "unit": "%"}, {"measurement": "Factor IX mean change from Baseline to Last Observed", "setting": "[3]", "value": "−22.5", "unit": "%"}, {"measurement": "Factor X mean change from Baseline to Last Observed", "setting": "[3]", "value": "−18.13", "unit": "%"}, {"measurement": "Thrombin-Antithrombin mean change from Baseline to Last Observed", "setting": "[3]", "value": -3.88, "unit": "µg/L"}, {"measurement": "von Willebrand Factor mean change from Baseline to Last Observed", "setting": "[3]", "value": "−18.5", "unit": "%"}, {"measurement": "Factor IX mean change from Baseline to Last Observed", "setting": "[4]", "value": "−40.8", "unit": "%"}, {"measurement": "Factor X mean change from Baseline to Last Observed", "setting": "[4]", "value": "−15.8", "unit": "%"}, {"measurement": "Thrombin-Antithrombin mean change from Baseline to Last Observed", "setting": "[4]", "value": 1.61, "unit": "µg/L"}, {"measurement": "Factor IX mean change from Baseline to Last Observed", "setting": "[5]", "value": "−4.2", "unit": "%"}, {"measurement": "Factor X mean change from Baseline to Last Observed", "setting": "[5]", "value": "−22", "unit": "%"}, {"measurement": "Thrombin-Antithrombin mean change from Baseline to Last Observed", "setting": "[5]", "value": -9.83, "unit": "µg/L"}, {"measurement": "von Willebrand Factor mean change from Baseline to Last Observed", "setting": "[5]", "value": "−18.5", "unit": "%"}, {"measurement": "Factor IX mean change from Baseline to Last Observed", "setting": "[6]", "value": "−22.5", "unit": "%"}, {"measurement": "Factor X mean change from Baseline to Last Observed", "setting": "[6]", "value": "−18.13", "unit": "%"}, {"measurement": "Thrombin-Antithrombin mean change from Baseline to Last Observed", "setting": "[6]", "value": -3.88, "unit": "µg/L"}, {"measurement": "von Willebrand Factor mean change from Baseline to Last Observed", "setting": "[6]", "value": "−18.5", "unit": "%"}, {"measurement": "Factor IX mean change from Baseline to Last Observed", "setting": "[7]", "value": "−11.59", "unit": "%"}, {"measurement": "Factor VIII mean change from Baseline to Last Observed", "setting": "[7]", "value": "−11.94", "unit": "%"}, {"measurement": "Factor X mean change from Baseline to Last Observed", "setting": "[7]", "value": "−0.06", "unit": "%"}, {"measurement": "Platelet Count mean change from Baseline to Last Observed", "setting": "[7]", "value": "−62.82 10^9/L"}, {"measurement": "Thrombin-Antithrombin mean change from Baseline to Last Observed", "setting": "[7]", "value": 1.48, "unit": "µg/L"}, {"measurement": "aPTT mean change from Baseline to Last Observed", "setting": "[7]", "value": 2.24, "unit": "s"}, {"measurement": "von Willebrand Factor mean change from Baseline to Last Observed", "setting": "[7]", "value": 2.88, "unit": "%"}, {"measurement": "Factor IX mean change from Baseline to Last Observed", "setting": "[8]", "value": 6.44, "unit": "%"}, {"measurement": "Factor VIII mean change from Baseline to Last Observed", "setting": "[8]", "value": "−26.38", "unit": "%"}, {"measurement": "Factor X mean change from Baseline to Last Observed", "setting": "[8]", "value": "−8.88", "unit": "%"}, {"measurement": "Platelet Count mean change from Baseline to Last Observed", "setting": "[8]", "value": "−74.82 10^9/L"}, {"measurement": "Thrombin-Antithrombin mean change from Baseline to Last Observed", "setting": "[8]", "value": -7.13, "unit": "µg/L"}, {"measurement": "aPTT mean change from Baseline to Last Observed", "setting": "[8]", "value": 0.5, "unit": "s"}, {"measurement": "von Willebrand Factor mean change from Baseline to Last Observed", "setting": "[8]", "value": 10.88, "unit": "%"}, {"measurement": "Factor IX mean change from Baseline to Last Observed", "setting": "All Subjects, mITT, Overall", "value": "−2.85", "unit": "%"}, {"measurement": "Factor VIII mean change from Baseline to Last Observed", "setting": "All Subjects, mITT, Overall", "value": "−18.94", "unit": "%"}, {"measurement": "Factor X mean change from Baseline to Last Observed", "setting": "All Subjects, mITT, Overall", "value": "−4.33", "unit": "%"}, {"measurement": "Platelet Count mean change from Baseline to Last Observed", "setting": "All Subjects, mITT, Overall", "value": "−68.82 10^9/L"}, {"measurement": "Thrombin-Antithrombin mean change from Baseline to Last Observed", "setting": "All Subjects, mITT, Overall", "value": -2.69, "unit": "µg/L"}, {"measurement": "aPTT mean change from Baseline to Last Observed", "setting": "All Subjects, mITT, Overall", "value": 1.45, "unit": "s"}, {"measurement": "von Willebrand Factor mean change from Baseline to Last Observed", "setting": "All Subjects, mITT, Overall", "value": 6.76, "unit": "%"}, {"measurement": "Factor IX mean change from Baseline to Last Observed", "setting": "[9]", "value": "−11.59", "unit": "%"}, {"measurement": "Factor VIII mean change from Baseline to Last Observed", "setting": "[9]", "value": "−11.94", "unit": "%"}, {"measurement": "Factor X mean change from Baseline to Last Observed", "setting": "[9]", "value": "−0.06", "unit": "%"}, {"measurement": "Thrombin-Antithrombin mean change from Baseline to Last Observed", "setting": "[9]", "value": 1.48, "unit": "µg/L"}, {"measurement": "aPTT mean change from Baseline to Last Observed", "setting": "[9]", "value": 2.24, "unit": "s"}, {"measurement": "von Willebrand Factor mean change from Baseline to Last Observed", "setting": "[9]", "value": 2.88, "unit": "%"}, {"measurement": "Factor IX mean change from Baseline to Last Observed", "setting": "[10]", "value": 6.44, "unit": "%"}, {"measurement": "Factor VIII mean change from Baseline to Last Observed", "setting": "[10]", "value": "−26.38", "unit": "%"}, {"measurement": "Factor X mean change from Baseline to Last Observed", "setting": "[10]", "value": "−8.88", "unit": "%"}, {"measurement": "Thrombin-Antithrombin mean change from Baseline to Last Observed", "setting": "[10]", "value": -7.13, "unit": "µg/L"}, {"measurement": "aPTT mean change from Baseline to Last Observed", "setting": "[10]", "value": 0.5, "unit": "s"}, {"measurement": "von Willebrand Factor mean change from Baseline to Last Observed", "setting": "[10]", "value": 10.88, "unit": "%"}, {"measurement": "Factor IX mean change from Baseline to Last Observed", "setting": "All Subjects, mPP, Overall", "value": "−2.85", "unit": "%"}, {"measurement": "Factor VIII mean change from Baseline to Last Observed", "setting": "All Subjects, mPP, Overall", "value": "−18.94", "unit": "%"}, {"measurement": "Factor X mean change from Baseline to Last Observed", "setting": "All Subjects, mPP, Overall", "value": "−4.33", "unit": "%"}]}]}
